Structures can show the parent of a compound that is named as a salt.
Tests used:
[1] = Pharmacokinetics and metabolites in mouse plasma after oral psilocybin; assay type: in vivo, C57BL/6J mice; conditions: for half-life / Cmax / Tmax: male, C57BL/6J, po; for half-life: mouse, plasma, read-out: elimination half-life t1/2 (mean ± SD) (converted); for Cmax: read-out: Cmax (mean ± SD); for Tmax: read-out: tmax (mean ± SD)
Protocol: C57BL/6J adult male mice (Janvier, Le Genest-Saint-Isle, France) were maintained in littermate pairs in standard cages (containing sawdust, a sleeping chamber, tissue paper, and a wood stick) with water and pellet food available ad libitium. The colony room was on a reversed light-dark cycle (dark phase 07:00 to 19:00) with temperature at 22°C and humidity at 50–60%. A total of 10 mice were dosed orally with either 3 mg/kg bodyweight psilocybin (n = 5) or saline solution (n = 5). Dosing and blood sampling were conducted between 09:00 and 13:00. The mouse was placed in a plastic restrainer with the tail protruding through a hole in the end of the tube. The tail was immersed in warm water for 1 min for vasodilation and then a small incision was made on the lateral tail surface near the distal tip. 50 μL of blood was massaged gently into an EDTA-coated capillary blood tube (Mircovette, Sarstedt, Nümbrecht, Germany). The first (baseline) blood sample was collected directly before compound administration via oral gavage and the mouse was then returned to the home cage. Further blood samples were collected at 15, 30, 60, and 120 min post-treatment. Each sample was drawn from the same incision site, with mice maintained in the home cage in the intervening periods. The blood samples were stored on ice and centrifuged for 10 min at 780 × g and 4°C. Subsequently, the plasma was transferred into cryotubes (Protein LoBind, Eppendorf) and stored at −80 °C until analysis. All procedures were conducted under a permit for animal experimentation (ZH038/2022) issued by the Veterinary Office Zurich in accordance with the Animal Protection Act (1978) of Switzerland. The use of psilocybin was authorized by the Federal Office of Public Health (FOPH).
Pharmacokinetic parameters were calculated using Phoenix WinNonlin software (version 8.1.0, Certara, Princeton, USA). The elimination half-life (t1/2, min) was assessed as t1/2 = ln(2)/λ, while the elimination constant was calculated by linear regression in the terminal elimination phase. The maximal plasma concentration (Cmax, ng/mL) and the time to reach this concentration (tmax, h) were direct read-outs of the graphical plots.

[2] = target: T1, MAO-A in human liver microsomes (HLM) (Homo sapiens, UniProt P21397); assay: Monoamine oxidase A inhibition in human liver microsomes; assay type: in vitro ADME; conditions: 5 μM kynuramine, t = 240 min
T1 construct: tissue Corning Life Sciences B.V; host or cells: pooled human liver microsomes
T1 sequence (P21397 1-527): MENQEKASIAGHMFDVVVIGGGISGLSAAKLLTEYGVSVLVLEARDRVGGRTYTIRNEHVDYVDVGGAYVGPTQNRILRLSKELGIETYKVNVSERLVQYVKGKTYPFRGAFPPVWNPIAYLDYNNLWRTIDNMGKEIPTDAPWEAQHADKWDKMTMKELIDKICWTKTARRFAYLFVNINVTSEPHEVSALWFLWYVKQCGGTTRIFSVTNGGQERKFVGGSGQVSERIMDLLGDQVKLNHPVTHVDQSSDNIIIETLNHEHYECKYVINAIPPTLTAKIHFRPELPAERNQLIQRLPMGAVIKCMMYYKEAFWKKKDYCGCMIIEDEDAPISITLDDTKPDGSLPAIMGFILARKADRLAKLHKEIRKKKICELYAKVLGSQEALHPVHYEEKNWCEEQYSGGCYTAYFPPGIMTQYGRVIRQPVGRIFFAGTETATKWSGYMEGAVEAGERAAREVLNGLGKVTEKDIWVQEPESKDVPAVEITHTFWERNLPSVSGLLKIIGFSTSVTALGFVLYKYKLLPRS

recombinant MAO-A = target: T2, recombinant MAO-A (Homo sapiens, UniProt P21397); assay: Incubation with recombinant MAO-A enzymes; assay type: in vitro ADME
T2 construct: purchased Corning Life Sciences B.V
T2 sequence (P21397 1-527): T1 sequence (P21397 1-527)
Protocol: (§1) Corning UltraPool human liver microsomes (HLM) 150 (20 mg/mL), human intestinal microsomes (HIM) pool (10 mg/mL) as well as recombinant human CYP enzymes (with P450 oxidoreductase, OR) including CYP1A2+OR (0.5 nmol), CYP2B6+OR (0.5 nmol), CYP2C8+OR (1.0 nmol), CYP2C9*1+OR (1 nmol), CYP2C19+OR (0.5 nmol), CYP2D6*1+OR (0.5 nmol), CYP2E1+OR + cytochrome b5 (1 nmol), CYP3A4+OR + cytochrome b5 (0.5 nmol), MAO-A (5 mg/mL), MAO-B (5 mg/mL), and UGT1A10 (5 mg/mL) were purchased from Corning Life Sciences B.V (Amsterdam, Netherlands). All microsomes and recombinant enzyme solutions were aliquoted and stored at −80 °C until further use.
(§2) The MAO inhibition assay was based on the assay described in section 2.5.1 and performed identically if not otherwise stated.

recombinant MAO-B = target: T3, recombinant MAO-B (Homo sapiens, UniProt P27338); assay: Incubation with recombinant MAO-B enzymes; assay type: in vitro ADME
T3 construct: purchased Corning Life Sciences B.V
T3 sequence (P27338 1-520): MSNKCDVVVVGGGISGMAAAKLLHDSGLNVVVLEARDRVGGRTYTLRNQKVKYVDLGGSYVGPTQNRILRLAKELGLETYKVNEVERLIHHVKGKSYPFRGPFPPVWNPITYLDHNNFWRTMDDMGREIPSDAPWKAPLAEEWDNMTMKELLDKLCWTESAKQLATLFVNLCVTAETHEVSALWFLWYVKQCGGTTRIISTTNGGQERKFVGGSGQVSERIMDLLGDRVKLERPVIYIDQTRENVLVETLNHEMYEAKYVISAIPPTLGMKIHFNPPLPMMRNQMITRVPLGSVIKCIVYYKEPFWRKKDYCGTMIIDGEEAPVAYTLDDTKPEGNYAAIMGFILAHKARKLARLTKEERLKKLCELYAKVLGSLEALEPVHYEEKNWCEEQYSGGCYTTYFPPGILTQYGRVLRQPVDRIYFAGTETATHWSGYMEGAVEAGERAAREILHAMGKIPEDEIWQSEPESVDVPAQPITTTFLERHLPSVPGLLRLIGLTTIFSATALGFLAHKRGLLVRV
Protocol: as §1, §2

[3] = system: human intestinal microsomes (HIM); assay: Glucuronidation with human intestinal microsomes; assay type: in vitro ADME; conditions: HIM
Protocol: as §1, with “use. Co-factors including NADPH regenerating system solution A (25 mM NADP+, 66 mM glucose-6-phosphate, and 66 mM MgCl2 in water), NADPH regenerating system solution B (40 U/mL glucose-6-phosphate dehydrogenase in 5 mM sodium citrate), UGT reaction mix solution A (25 mM uridine 5′-diphospho-glucuronic acid in water), and UGT reaction mix solution B (250 mM Tris-HCl, 40 mM MgCl2, and 0.125 mg/mL alamethicin in water) were also obtained from Corning Life Sciences B.V.” for “use.”
The assay described in section 2.5.1 was adjusted to suit the glucuronidation system. […] HLM were diluted as described in section 2.5.1, while HIM or UGT1A10 enzymes were diluted 1:40 (end concentration […] and 0.125 mg/mL, respectively) in the reaction mix. Sampling time points were adjusted to 0, 15, 30, 60, 90, 120, 180, and 240 min.

[4] = target: T4, recombinant human UGT1A10 (Homo sapiens, UniProt Q9HAW8); assay: Glucuronidation with recombinant UGT1A10; assay type: in vitro ADME
T4 construct: purchased Corning Life Sciences B.V
T4 sequence (Q9HAW8 26-530): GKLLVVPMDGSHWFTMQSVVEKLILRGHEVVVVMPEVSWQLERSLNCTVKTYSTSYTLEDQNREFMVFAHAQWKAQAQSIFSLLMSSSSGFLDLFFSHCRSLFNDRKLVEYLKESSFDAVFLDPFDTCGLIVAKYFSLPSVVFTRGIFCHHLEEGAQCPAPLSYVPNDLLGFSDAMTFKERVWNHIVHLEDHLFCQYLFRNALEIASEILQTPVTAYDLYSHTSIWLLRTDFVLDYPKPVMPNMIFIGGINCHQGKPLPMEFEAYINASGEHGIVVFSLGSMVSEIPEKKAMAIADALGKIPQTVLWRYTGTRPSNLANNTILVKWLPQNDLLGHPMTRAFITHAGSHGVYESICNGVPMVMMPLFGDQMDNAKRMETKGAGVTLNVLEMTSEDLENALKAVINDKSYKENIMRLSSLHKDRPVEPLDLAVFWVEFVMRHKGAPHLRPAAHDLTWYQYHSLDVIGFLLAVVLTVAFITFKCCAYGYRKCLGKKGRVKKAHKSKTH
Protocol: as §1
The assay described in section 2.5.1 was adjusted to suit the glucuronidation system.

[5] = ref Holze et al., 2022a, cited from earlier work
[6] = Metabolites in human plasma after oral psilocybin (reanalysed study samples); conditions: 30 mg psilocybin p.o., n = 5
[7] = 3 mg/kg, mouse plasma, 3 mg/kg psilocybin p.o., n = 5
[8] = mouse plasma, 3 mg/kg psilocybin p.o., n = 5
[9] = 1,000 nM DMT, rec. MAO-A, t = 240 min
[10] = 1,000 nM DMT, rec. MAO-B, t = 240 min

## O=C(O)Cc1c[nH]c2cccc(OC3O[C@H](C(=O)O)[C@@H](O)[C@H](O)[C@H]3O)c12 (some centres unmarked) [4-HIAA-glucuronide]
[1]; [7]
  half-life: 82.8 ± 16.2 min
[1]; [8]
  Cmax: 30 ± 6.7 ng/mL
  Tmax: 27 ± 6.6 min

## Oc1ccnc2ccccc12 [4-HQ, 4-hydroxyquinoline]
[2]; HLM with clorgyline
  4-HQ concentration formed from kynuramine: 347 ± 67 nM
[2]; HLM
  4-HQ concentration formed from kynuramine: 1,974 ± 302 nM
Recombinant MAO-A; 5 μM kynuramine, rec. MAO-A, t = 300 min
  4-HQ concentration formed from kynuramine: 2,694 ± 264 nM
Recombinant MAO-B; 5 μM kynuramine, rec. MAO-B, t = 240 min
  4-HQ concentration formed from kynuramine: 4,692 ± 891 nM

## CN(C)CCc1c[nH]c2ccccc12 [DMT, N,N-dimethyltryptamine]
Recombinant MAO-A; 1,000 nM DMT, rec. MAO-A, t = 0 min
  DMT concentration: 907 ± 31 nM
Recombinant MAO-A; [9]
  DMT concentration: 110 ± 29 nM
Recombinant MAO-A; rec. MAO-A with clorgyline, t = 0 min
  DMT concentration: 915 ± 11 nM
Recombinant MAO-A; rec. MAO-A with clorgyline, t = 240 min
  DMT concentration: 853 ± 69 nM
Recombinant MAO-B; 1,000 nM DMT, rec. MAO-B, t = 0 min
  DMT concentration: 940 ± 47 nM
Recombinant MAO-B; [10]
  DMT concentration: 816 ± 56 nM
Recombinant MAO-B; rec. MAO-B with R-deprenyl, t = 0 min
  DMT concentration: 954 ± 73 nM
Recombinant MAO-B; rec. MAO-B with R-deprenyl, t = 240 min
  DMT concentration: 1,008 ± 58 nM

## O=C(O)Cc1c[nH]c2ccccc12 [IAA, indole-3-acetic acid]
Recombinant MAO-A; [9]
  IAA concentration formed from DMT: 30.3 ± 4.2 nM
Recombinant MAO-B; [10]
  IAA concentration formed from DMT: 11.5 ± 4.5 nM

## O=C1Nc2c(O)cc(Cl)cc2[C@@](C#CC2CC2)(C(F)(F)F)O1 [OH-efavirenz, 8-hydroxy-efavirenz]
[3]; over 240 min, control condition
  OH-efavirenz glucuronidated: 99%
[3]; t = 0
  OH-efavirenz peak area: 45,300 ± 5,766 counts
[3]; t = 240 min
  OH-efavirenz peak area: 470 ± 394 counts
[4]; rec. UGT1A10, over 240 min, control condition
  OH-efavirenz glucuronidated: 98%
[4]; rec. UGT1A10, t = 0
  OH-efavirenz peak area: 41,700 ± 10,936 counts
[4]; rec. UGT1A10, t = 240 min
  OH-efavirenz peak area: 1,007 ± 155 counts

## NCCC(=O)c1ccccc1N [kynuramine, kynuramine dihydrobromide]
Recombinant MAO-A; rec. MAO-A, t = 0 min
  kynuramine signal: 135,200 ± 23,816 counts
Recombinant MAO-A; rec. MAO-A, t = 300 min
  kynuramine signal: 48,503 ± 12,251 counts
Recombinant MAO-B; rec. MAO-B, t = 0 min
  kynuramine signal: 82,853 ± 11,336 counts
Recombinant MAO-B; rec. MAO-B, t = 240 min
  kynuramine signal: 9,533 ± 8,311 counts

## CN(C)CCc1c[nH]c2cccc(OC3O[C@H](C(=O)O)[C@@H](O)[C@H](O)[C@H]3O)c12 (some centres unmarked) [psilocin-O-glucuronide]
[1]; [7]
  half-life: 58.2 ± 3.6 min
[1]; [8]
  Cmax: 521 ± 57 ng/mL
  Tmax: 21 ± 8.4 min
[1]; mouse plasma, 3 mg/kg psilocybin p.o.
  mean Cmax relative to psilocin (higher): 2.6 fold
[1]; mouse plasma, 3 mg/kg psilocybin p.o., n = 5, 3 mg/kg
  elimination half-life t1/2 (mean ± SD): ~1 h
[1]; mouse versus human
  half-life in mice relative to humans (lower): around 4 fold
[5]; clinical studies
  plasma concentrations of conjugated psilocin relative to free psilocin (higher): around 4 fold
[5]; humans, oral psilocybin, within 24 h (time not stated for 4-HIAA)
  fraction of administered psilocybin dose excreted in urine: Approximately 20%
[5]; humans
  half-life in humans: around 4 h

## CN(C)CCc1c[nH]c2cccc(OP(=O)(O)O)c12 [psilocybin]
[1]; 3 mg/kg psilocybin p.o.
  detection in mouse plasma: did not detect
[6]
  detection in human plasma: did not detect

Source: PMC11089204 (Frontiers in Pharmacology, 2024)
